Two compounds from patent US6555372B1, “Composition for enhancing cellular immunogenicity comprising alpha-glycosylceramides” (Kirin Beer Kabushiki Kaisha, priority 1997, dated 2003) can be followed below.

Experiment [1] relates to Mouse T lymphoma EL-4 cells. Kind of experiment: Therapeutic effect of treated tumor cells in EL-4 liver metastasis model mice. In kind it is in vivo. The method, then: Mouse T lymphoma EL-4 cells (4×10^5 cells/mouse) were implanted intravenously into the tail of BDF1 mice (female, 6 weeks of age, Japan SLC, Inc.), 6 animals in one group, to prepare cancer-bearing mice. The days of tumor implantation was set to be day 0. On the same day, a vehicle (0.1% DMSO), KRN 7000 (100 ng/ml) or AGL-583 (100 ng/ml) was added to EL-4 cells which had been inoculated into a fresh medium, in the same manner as in Pharmacological Test 1 above. One day after the start of incubation, cells of EL-4/V, EL-4/KRN and EL-4/583 cultured in the presence of the vehicle, KRN 7000 and AGL-583, respectively, were recovered and washed twice with the medium, after which the recovered cells were immunized intravenously into the tail of the cancer-bearing mice at 1×10^5 cells/mouse. The resulting antitumor effect was compared.
EL-4 implanted mice generally died in about 30 days owing to the tumor formation and growth in several organs, particularly in the liver. Therefore, antitumor effect was evaluated by observing the survival period of cancer-bearing hosts.

In experiment [2] the test system is B16, EL-4, Lewis lung carcinoma, Colon 26, L1210 and Meth A mouse tumor cells. Kind of experiment: Effect of α-glycosylceramide on tumorigenicity of tumor cells. In kind it is in vivo. The conditions noted are these: six mouse tumor cell lines cultured 1 day with 100 ng/ml, implanted i.v. into C57BL/6 or BALB/c mice; FIG. 4. The text has this: Six kinds of mouse tumor cells, i.e., three kinds of C57BL/6 mouse-derived tumor cells, i.e., murine melanoma B16 cells (Dainippon Pharmaceutical Co., Ltd.), mouse T lymphoma EL-4 cells (Dainippon Pharmaceutical Co., Ltd.) and mouse Lewis lung carcinoma cells (Dainippon Pharmaceutical Co., Ltd.), and three kinds of BALB/c-mouse derived tumor cells, i.e., mouse colon cancer cell Colon 26 (Japanese Foundation for Cancer Research), mouse leukemia L1210 cells (Japanese Foundation for Cancer Research) and mouse fibrosarcoma Meth A cells (Japanese Foundation for Cancer Research) were cultured with or without an addition of a vehicle (0.1% DMSO) or KRN 7000 (100 ng/ml) for one day as described in Pharmacological Tests above. The resulting tumor cells were washed twice with a medium, suspended again in a fresh medium and implanted intravenously into the tail of corresponding mice. […]
The tumor cells implanted intravenously into the tail formed metastasized nodules in various organs, particularly in the liver or lung, and ultimately killed the animals. Accordingly, the effect of the tumor cells on tumorigenicity (a rate of tumor formation, the ability to form tumor burden) was evaluated by observing the survival period.

Where [3] appears, read: EL-4-bearing BDF1 mice immunized i.v. on day 1 with 1×10^5 EL-4 cells cultured 1 day with 100 ng/ml compound, vs control mice with tumor only, FIG. 2.

Turning to `CCCCCCCCCCCCCCCCCCCCCCCCCC(=O)N[C@@H](CO[C@@H]1O[C@H](CO)[C@H](O)[C@H](O)[C@H]1O)[C@H](O)[C@H](O)CCCCCCCCCCCCCC` [AGL-583, reference compound], in experiment [1] (setting [3]), the antitumor effect result was “no evident antitumor effect was observed” and the survival period entry is recorded as “not prolonged at all”.
For `CCCCCCCCCCCCCCCCCCCCCCCCCC(=O)N[C@@H](CO[C@H]1O[C@H](CO)[C@H](O)[C@H](O)[C@H]1O)[C@H](O)[C@H](O)CCCCCCCCCCCCCC` [KRN 7000, (2S,3S,4R)-1-(α-D-galactopyranosyloxy)-2-hexacosanoylamino-3,4-octadecanediol], in experiment [1] (setting [3]), the survival period entry is given as “markedly prolonged”. The “treated mice survived for a long term” value in experiment [1] (EL-4-bearing BDF1 mice immunized i.v. with 1×10^5 EL-4 cells cultured 1 day with 100 ng/ml compound, 6 animals per group) is given as 33.3%. The “tumorigenicity of treated tumor cells” value in experiment [2] is recorded as “diminished or completely abolished”.
